Experimental data: patent US20160324884A1, “TREATMENT OF DIABETES WITH PENTACYCLIC TRITERPENOID SAPONIN COMPOUNDS FROM SZECHUAN MELANDIUM ROOT” (priority 2013, published 2016)
“Also recorded” adds a separate entry of the source.

Tests used:
[1] = test system: normal ICR mice; experiment: Glycemia in normal ICR mice (Example 4); assay type: in vivo; settings: 2.0 mg/kg Sc, vs control group
From the text: 40 male ICR mice (20-22g, License NO. SCXK (BJ) 2011-0004, Beijing SPF Experimental Animal Technology Co. Ltd.) were adaptively bred for one week, and then used in the following experiment.
Animals were housed individually in wood-chip-bedded plastic cages and fed the standard laboratory chow. All the animals had ad libitum access to food and water.
40 ICR mice were adaptively bred for 1 week, and then randomly assigned into 4 groups: Model, Compound (1), Compound (2) and metformin group, 10 mice per group. All the animals were fed with normal food. Mice in the control group were hypodermically injected with sterile water. The treated groups were subcutaneously injected with Compounds (1) and (2), respectively. And the positive group was administrated metformin by gavage. All the animals were administrated at 9 am for 2 weeks, and the dose volume is 10 ml/kg BW.
Compound (1) and (2) were respectively dissolved into sterile water, and sterilized with filtration for Sc. The metformin was dissolved into sterile water for lg. to the positive control group. Mice in the control group were injected with sterile water (10 ml/kg BW), Sc. All the animals were treated at 9 am for 2 weeks (14 days).
Blood detection: Blood glucose was measured weekly. Overnight fasting glycemia was measured by One Touch ULTRA Glucometer (LifeScan Johnson and Johnson, USA) for the tail blood test.
End of the experiment: After mice being administrated for 2 weeks (14 days), the experiment was terminated.

[2] = test system: KK^Ay mice; experiment: Hepatic and muscle glycogen in KK^Ay mice (Example 3); assay type: in vivo; settings: 2.0 mg/kg Sc
From the text: (§1) 60 KK^Ay mice were adaptively bred for 1 week, and then randomly assigned into 6 groups: Model group, Compound (1) group, Compound (2) group, Compound (3) group, Compound (4) group, and metformin group, 10 mice per group. 10 normal C57BL/6 mice were used for the control group. KK^Ay mice were in a high-fat diet, and the control normal mice were in a normal control diet. The control and model groups were hypodermically injected with sterile water, the 6 medicated groups mice were subcutaneously injected with […] Wacao saponins, (Compounds (1), (2), (3) and (4)) respectively, and the positive group was administered metformin by gavage. All mice were administrated at 9 am for 2 weeks and the administration volume is 10 ml/kg BW.
(§2) The body weight, food and water intake of each mouse was measured and recorded weekly throughout the course of the experiment. At the end of the experiment, collected the blood and separated serum, fasting blood glucose, insulin levels and insulin sensitivity index (ISI) were measured or calculated in each group. Liver, skeletal muscles of mice in each group were taken and weighed for detecting glycogen levels of the hepatic and muscles after mice being killed.
(§3) Compound (1), (2), (3) and (4) were respectively dissolved into sterile water, and sterilized with filtration for Sc. to the medication groups. The metformin was dissolved into sterile water for lg. to the positive control group. Control and model groups animals were injected with sterile water (10 ml/kg BW), Sc. All the animals were treated daily at 9 am for 2 weeks (14 days).
(§4) Blood detection: Blood glucose was measured weekly. Overnight fasting glycemia level was measured with One Touch ULTRA Glucometer for the tail blood test. At the end of the experiment, blood serum was collected for measuring levels of fasting blood glucose and insulin, and the insulin sensitivity index (ISI) was calculated. At the same time, hepatic tissues and skeletal muscles of mice were taken out to determine levels of hepatic and muscle glycogen by detection kits.

[3] = test system: KK^Ay mice; experiment: Glycemia in KK^Ay mice during treatment and after withdrawal (Example 3); assay type: in vivo
From the text: (§5) 60 male KK^Ay mice (12 weeks of age, License NO. SCXK (BJ) 2009-0015, Beijing Huafukang Biology Technology Co. Ltd.) and 10 normal male C57BL/6 mice (12 weeks of age, License NO. SCXK (BJ) 2009-0015, Beijing Huafukang Biology Technology Co. Ltd.) were adaptively bred for one week, and then used in the following experiment.
as §1, §3, §4
Termination of the experiment After administrating mice for 2 weeks (14 days), the experiment was terminated.
This experiment is to observe the anti-hyperglycemia effects of Wacao saponins on KK^Ay mice during and after the period of drug treatment, respectively.

[4] = test system: T2DM rats; experiment: Fasting glycemia in T2DM model rats (high-fat emulsion + STZ, Example 5); assay type: in vivo, SD rats
From the text: 50 male SD rats (180-200 g, License NO. SCXK (BJ) 2011-0004, Beijing SPF Experimental Animal Technology Co. Ltd.) were adaptively bred for 1 week, and then used in the pharmacological experiment.
Animals were housed individually in wood-chip-bedded plastic cages and fed a standard laboratory chow. All the animals had ad libitum access to food and water.
50 SD rats were adaptively bred for 1 week, and then randomly assigned into 5 groups: The control group, model group, Compound (1) group, Compound (2) group and glucobay group (the positive group), 10 rats per group. All the animals were in a standard laboratory diet. Control and model group animals were hypodermically injected with sterile water, test compound treatment groups were subcutaneously injected with the Compounds (1) and (2), and the positive group was administrated glucobay solution by gavage. All the animals were administrated at 9 am for 2 weeks, and the dose volume is 10 ml/kg BW.
The Compounds (1) and (2) were dissolved into sterile water, and sterilized with filtration, Sc. Glucobay was dissolved into sterile water, lg. Animals in the control and model groups were injected with sterile water (10 ml/kg BW), Sc. All the animals were treated at 9 am for 2 weeks (14 days).
All rats except the control group were administrated intragastrically with the high-fat emulsion (10 ml/kg) and weighed the body weight weekly. After weeks of administration, rats were intraperitoneally injected with streptozotocin (STZ, dissolved in citric acid-citrate sodium solution, pH 4.2, freshly prepared and used instantly, and store away from light) (30mg/kg). 4 days later, blood glucose level in rats was measured by tail blood test. Diabetes was defined as fasting blood glucose level>11.1 mmol/Lin in this experiment.
The blood glucose level was measured before and after administration of the treatment compounds for 2 weeks, respectively. The animals were fasted overnight and tail blood samples were taken. Fasting glycemia was measured by using One Touch ULTRA Glucometer or kits.

[5] = test system: KK^Ay mice; experiment: Body weight, food and water intake in KK^Ay mice (Example 3); assay type: in vivo; settings: vs model group
From the text: as §5
The animals were housed individually in wood-chip-bedded plastic cages. Germ-free and high-fat diets (Beijing Huafukang Biology Technology Co. Ltd.) were used to feed the KK^Ay mice. All the animals had free access to food and water.
as §1, §2, §3
Measurement of food and water intake: 24 hours' food and water intake were measured by gravimetry once a week. It should be paid attention to recycling leakage of small forage into the feed box to ensure the accuracy of food intake.
Determination of body weight: The body weight of mice was measured and recorded once a week.
Results are shown as means±SD. Statistical analysis data were analyzed by using SPSS 10.0 software. Data were evaluated with analysis of variance.

Question: How did the glycemia level ([1]; after 1 week) turn out when `CC(=O)OC1C(OC(=O)/C=C/c2ccc(C)cc2)C(C)OC(OC(=O)[C@]23CCC(C)(C)C[C@H]2C2C=C[C@@H]4[C@@]5(C)CC[C@H](OC6OC(C(=O)O)C(O)C(OC7OCC(O)C(O)C7O)C6OC6OC(CO)C(O)C(O)C6O)[C@@](C)(C=O)[C@@H]5CC[C@@]4(C)[C@]2(C)C[C@H]3O)C1OC1OC(C)C(O)C(O)C1O` (some centres unmarked) [Compound (1), sinocrassuloside VI] was run?
Answer: no significant difference was found except the Compound (1) group (p<0.05, vs. control group)

Question: What about the glycemia level ([1]; after 2 weeks) of the same compound?
Answer: decreased much obviously

Question: What about the “enhancement of glycogen storage” value ([2]; 2 weeks, comparison among compounds and with metformin, 2 mg/kg) of the same compound?
Answer: strongest activity of the function; also recorded: almost comparable to metformin

Question: What about the muscle glycogen level ([2]; after 2 weeks, vs model group) of the same compound?
Answer: stronger efficacy in raising levels muscle glycogen

Question: And the overall anti-diabetic effects ([3]; KK^Ay mice, 2.0 mg/kg Sc, 2 weeks, comparison among compounds)?
Answer: best anti-diabetic effects

Question: What about the “duration of hypoglycemic effect compared with metformin” value ([3]; KK^Ay mice, after stopping medication) of the same compound?
Answer: lasts longer than that of metformin

Question: What about the “descending rates of blood glucose” value ([3]; T2DM mice, 2 mg/kg, two weeks after subcutaneous injection) of the same compound?
Answer: 70%

Question: And the “anti-hyperglycemia efficacy compared with glucobay” value ([4]; 4.0 mg/kg Sc vs glucobay 20 mg/kg lg, 2 weeks)?
Answer: much stronger than that of the glucobay

Question: And the glycemia level ([4]; 4.0 mg/kg Sc, after 2 weeks, vs model group)?
Answer: significantly decreased

Question: And the body weight growth ([5]; 2.0 mg/kg BW Sc, 2 weeks)?
Answer: best effect of resistance on body weight growth

Question: What about the food intake ([5]; after 1 week, compounds 2.0 mg/kg Sc, metformin 500 mg/kg lg) of the same compound?
Answer: decreased obviously
